Data: patent US9567642B2, “Methods and products related to targeted cancer therapy” (Massachusetts Institute of Technology, priority 2012, dated 2017)

What was measured:
[1] = tested on: p53 wild type or p53 mutant cells; assay: Q-RT-PCR of doxorubicin induced p21 and CD80 mRNA; format: cell-based, human; conditions: set of p53 wild type or p53 mutant cells, FIG. 14
Method: Tumors were isolated from Kras^LA2/+; Trp53^LSL/LSL; Rosa26^CreERT2 animals, dissociated with collagenase and trypsin for one hour at 37° C., and then grown in DME plus 10% fetal bovine serum. Human cell lines were obtained from American Type Culture Collection and grown per manufacturer recommendations.
RNA was isolated from cultured cells with Trizol reagent following manufacturer protocol. Complementary DNA was generated from 1 μg total RNA using High Capacity RT-PCR Kit (Roche, quantitative PCR (Q-RT-PCR)) following manufacturer protocol. Total cDNA was diluted 20 fold in H2O and 10 μL was used in a SYBR green quantitative PCR reaction. Specifically, specific primers were diluted from 100 μM stocks to a final concentration of 0.25 μM into JumpStart Ready Taq SYBR green (Sigma) and 10 μL was mixed with 10 μL diluted cDNA and cycled 40 times with the following cycling parameters on a Step One Plus (Applied Biosystems) real-time thermocycler: […]

[2] = tested on: CD80 cell surface expression; assay: Flow cytometry of CD80 cell surface expression; format: cell-based, mouse; conditions: cells untreated, treated with tamoxifen, AdFlpO or AdCre; FIG. 11
Method: Tumors were isolated from Kras^LA2/+; Trp53^LSL/LSL; Rosa26^CreERT2 animals, dissociated with collagenase and trypsin for one hour at 37° C., and then grown in DME plus 10% fetal bovine serum. Human cell lines were obtained from American Type Culture Collection and grown per manufacturer recommendations. Cells were harvested from plasticware using 2 mM EDTA solution. Approximately 1 […] cells were resuspended in % FBS in PBS and incubated with APC conjugated CD80 Ab at a 1:100 dilution (Hamster IgG2 Clone:16-10A1 from BD Biosciences). Cells were scanner on a FASCaliber flow cytometer (BD Biosciences).

Row | SMILES | induction of p21 as measured by Q-RT-PCR [1] | induction of CD80 as measured by Q-RT-PCR ([1]; induction of human CD80 mirrors p21 induction) | CD80 cell surface expression (flow cytometry histograms) [2]
1 | COc1cccc2c1C(=O)c1c(O)c3c(c(O)c1C2=O)C[C@@](O)(C(=O)CO)C[C@@H]3O[C@H]1C[C@H](N)[C@H](O)[C@H](C)O1 [doxorubicin] | induced | induced | –
2 | CC/C(=C(\c1ccccc1)c1ccc(OCCN(C)C)cc1)c1ccccc1 [tamoxifen] | – | – | not tamoxifen dependent
